From PMC11420776 (RSC Advances, 2024)
“Also recorded” adds a separate entry of the source.

How the values were obtained:
CCRF-CEM (leukemia) = experiment: NCI 60-cell one-dose antiproliferative screen; assay type: cell-based, human; conditions: one dose 10 μM
RPMI-8226 (leukemia) = experiment: NCI 60-cell one-dose antiproliferative screen; assay type: cell-based, human; conditions: one dose 10 μM
EKVX (NSC lung cancer) = experiment: NCI 60-cell one-dose antiproliferative screen; assay type: cell-based, human; conditions: one dose 10 μM
[1] = system: NCI-H226 (NSC lung cancer); experiment: NCI 60-cell one-dose antiproliferative screen; assay type: cell-based, human; conditions: one dose 10 μM
[2] = system: NCI-H23 (NSC lung cancer); experiment: NCI 60-cell one-dose antiproliferative screen; assay type: cell-based, human; conditions: one dose 10 μM
[3] = system: NCI-H322M (NSC lung cancer); experiment: NCI 60-cell one-dose antiproliferative screen; assay type: cell-based, human; conditions: one dose 10 μM
[4] = system: NCI-H460 (NSC lung cancer); experiment: NCI 60-cell one-dose antiproliferative screen; assay type: cell-based, human; conditions: one dose 10 μM
[5] = system: NCI-H522 (NSC lung cancer); experiment: NCI 60-cell one-dose antiproliferative screen; assay type: cell-based, human; conditions: one dose 10 μM
COLO-205 (colon cancer) = experiment: NCI 60-cell one-dose antiproliferative screen; assay type: cell-based, human; conditions: one dose 10 μM
HCC-2998 (colon cancer) = experiment: NCI 60-cell one-dose antiproliferative screen; assay type: cell-based, human; conditions: one dose 10 μM
HCT-116 (colon cancer) = experiment: NCI 60-cell one-dose antiproliferative screen; assay type: cell-based, human; conditions: one dose 10 μM
HT29 (colon cancer) = experiment: NCI 60-cell one-dose antiproliferative screen; assay type: cell-based, human; conditions: one dose 10 μM
KM12 (colon cancer) = experiment: NCI 60-cell one-dose antiproliferative screen; assay type: cell-based, human; conditions: one dose 10 μM
SW-620 (colon cancer) = experiment: NCI 60-cell one-dose antiproliferative screen; assay type: cell-based, human; conditions: one dose 10 μM
SF-268 (CNS cancer) = experiment: NCI 60-cell one-dose antiproliferative screen; assay type: cell-based, human; conditions: one dose 10 μM
SF-295 (CNS cancer) = experiment: NCI 60-cell one-dose antiproliferative screen; assay type: cell-based, human; conditions: one dose 10 μM
SNB-75 (CNS cancer) = experiment: NCI 60-cell one-dose antiproliferative screen; assay type: cell-based, human; conditions: one dose 10 μM
U251 (CNS cancer) = experiment: NCI 60-cell one-dose antiproliferative screen; assay type: cell-based, human; conditions: one dose 10 μM
MALME-3M (melanoma) = experiment: NCI 60-cell one-dose antiproliferative screen; assay type: cell-based, human; conditions: one dose 10 μM
M14 (melanoma) = experiment: NCI 60-cell one-dose antiproliferative screen; assay type: cell-based, human; conditions: one dose 10 μM
SK-MEL-2 (melanoma) = experiment: NCI 60-cell one-dose antiproliferative screen; assay type: cell-based, human; conditions: one dose 10 μM
SK-MEL-28 (melanoma) = experiment: NCI 60-cell one-dose antiproliferative screen; assay type: cell-based, human; conditions: one dose 10 μM
UACC-257 (melanoma) = experiment: NCI 60-cell one-dose antiproliferative screen; assay type: cell-based, human; conditions: one dose 10 μM
UACC-62 (melanoma) = experiment: NCI 60-cell one-dose antiproliferative screen; assay type: cell-based, human; conditions: one dose 10 μM
IGROV1 (ovarian cancer) = experiment: NCI 60-cell one-dose antiproliferative screen; assay type: cell-based, human; conditions: one dose 10 μM
OVCAR-3 (ovarian cancer) = experiment: NCI 60-cell one-dose antiproliferative screen; assay type: cell-based, human; conditions: one dose 10 μM
OVCAR-5 (ovarian cancer) = experiment: NCI 60-cell one-dose antiproliferative screen; assay type: cell-based, human; conditions: one dose 10 μM
OVCAR-8 (ovarian cancer) = experiment: NCI 60-cell one-dose antiproliferative screen; assay type: cell-based, human; conditions: one dose 10 μM
SK-OV-3 (ovarian cancer) = experiment: NCI 60-cell one-dose antiproliferative screen; assay type: cell-based, human; conditions: one dose 10 μM
786-0 (renal cancer) = experiment: NCI 60-cell one-dose antiproliferative screen; assay type: cell-based, human; conditions: one dose 10 μM
ACHN (renal cancer) = experiment: NCI 60-cell one-dose antiproliferative screen; assay type: cell-based, human; conditions: one dose 10 μM
CAKI-1 (renal cancer) = experiment: NCI 60-cell one-dose antiproliferative screen; assay type: cell-based, human; conditions: one dose 10 μM
RXF 393 (renal cancer) = experiment: NCI 60-cell one-dose antiproliferative screen; assay type: cell-based, human; conditions: one dose 10 μM
SN12C (renal cancer) = experiment: NCI 60-cell one-dose antiproliferative screen; assay type: cell-based, human; conditions: one dose 10 μM
TK-10 (renal cancer) = experiment: NCI 60-cell one-dose antiproliferative screen; assay type: cell-based, human; conditions: one dose 10 μM
DU-145 (prostate cancer) = experiment: NCI 60-cell one-dose antiproliferative screen; assay type: cell-based, human; conditions: one dose 10 μM
MCF7 (breast cancer) = experiment: NCI 60-cell one-dose antiproliferative screen; assay type: cell-based, human; conditions: one dose 10 μM
[6] = system: MDA-MB-231/ATCC (breast cancer); experiment: NCI 60-cell one-dose antiproliferative screen; assay type: cell-based, human; conditions: one dose 10 μM
HS 578T (breast cancer) = experiment: NCI 60-cell one-dose antiproliferative screen; assay type: cell-based, human; conditions: one dose 10 μM
[7] = system: MDA-MB-468 (breast cancer); experiment: NCI 60-cell one-dose antiproliferative screen; assay type: cell-based, human; conditions: one dose 10 μM
[8] = system: 60 human tumor cell lines; experiment: NCI 60-cell one-dose antiproliferative screen, whole panel; assay type: cell-based; conditions: Homo sapiens, 60 cell, read-out: Mean inhibition (mean GI%)
[9] = system: breast cancer cell line MCF7; experiment: MTT cytotoxicity assay, MCF7; assay type: cell-based, human
[10] = MTT cytotoxicity assay, MCF10a; assay type: cell-based; conditions: human, MCF10a normal mammary epithelial cells
p-PI3K = experiment: Phosphorylated PI3K ELISA in MCF7 cells; assay type: cell-based, human; conditions: 4g at its IC50 0.56 μM, compared to untreated MCF7 cells
MCF7 cells [11] = experiment: Cell cycle analysis by flow cytometry; assay type: cell-based, human
MCF7 cells [12] = experiment: Annexin V/PI dual staining apoptosis assay; assay type: cell-based, human; conditions: MCF7, 24 h, 4g at IC50 (0.56 μM)
[13] = MCF7, 4g at IC50 (0.56 μM), 24 h
[14] = MCF7, 4g at IC50 (0.56 μM), relative to DMSO control

SMILES: COc1ccc(-c2nnc3ccc(NN=Cc4ccc(O)cc4)nn23)cc1 [Compound 4g, 4-((2-(3-(4-Methoxyphenyl)-[1,2,4]triazolo[4,3-b]pyridazin-6-yl)hydrazono)methyl)phenol]
- GI% (CCRF-CEM (leukemia)): 85.88%
- GI% (RPMI-8226 (leukemia)): 86.88%
- GI% (EKVX (NSC lung cancer)): 62.20%
- GI% [1]: 22.48%
- GI% [2]: 67.47%
- GI% [3]: 38.06%
- GI% [4]: 55.73%
- GI% [5]: 53.35%
- GI% (COLO-205 (colon cancer)): 43.51%
- GI% (HCC-2998 (colon cancer)): 85.07%
- GI% (HCT-116 (colon cancer)): 72.71%
- GI% (HT29 (colon cancer)): — (— GI% is below 15%)
- GI% (KM12 (colon cancer)): 71.51%
- GI% (SW-620 (colon cancer)): 32.85%
- GI% (SF-268 (CNS cancer)): 64.19%
- GI% (SF-295 (CNS cancer)): 56.41%
- GI% (SNB-75 (CNS cancer)): 46.38%
- GI% (U251 (CNS cancer)): 32.41%
- GI% (MALME-3M (melanoma)): 35.83%
- GI% (M14 (melanoma)): 43.64%
- GI% (SK-MEL-2 (melanoma)): 26.79%
- GI% (SK-MEL-28 (melanoma)): 30.86%
- GI% (UACC-257 (melanoma)): 17.70%
- GI% (UACC-62 (melanoma)): 41.19%
- GI% (IGROV1 (ovarian cancer)): 60.66%
- GI% (OVCAR-3 (ovarian cancer)): 62.40%
- GI% (OVCAR-5 (ovarian cancer)): — (— GI% is below 15%)
- GI% (OVCAR-8 (ovarian cancer)): 54.60%
- GI% (SK-OV-3 (ovarian cancer)): — (— GI% is below 15%)
- GI% (786-0 (renal cancer)): 77.10%
- GI% (ACHN (renal cancer)): 56.52%
- GI% (CAKI-1 (renal cancer)): 78.54%
- GI% (RXF 393 (renal cancer)): 57.34%
- GI% (SN12C (renal cancer)): 57.71%
- GI% (TK-10 (renal cancer)): 61.05%
- GI% (DU-145 (prostate cancer)): 48.11%
- GI% (MCF7 (breast cancer)): 86.77%
- GI% [6]: 39.44%
- GI% (HS 578T (breast cancer)): 53.18%
- GI% [7]: 51.76%
- inhibition at 10 µM [8]: 55.8%
- IC50 ([9]; Homo sapiens, MCF7, 72 h, read-out: Cytotoxicity IC50 MCF7): 0.56 ± 0.03 µM
- Selectivity index ([9]; IC50 on normal cells (MCF10a) / IC50 on cancer cells (MCF7)): 19.11
- IC50 at 72 h [10]: 10.7 ± 0.56 µM
- inhibition of PI3K phosphorylation (p-PI3K): 55.5%
- %G0-G1 (MCF7 cells [11]; [13]): 52.94%
- %G2/M (MCF7 cells [11]; [13]): 4.13%
- drop in the cell population at G0/G1 phase (MCF7 cells [11]; [14]): 10.48%
- drop in the cell population at G2/M phase (MCF7 cells [11]; [14]): 46.84%
- increase in the proportion of cells in the S phase (MCF7 cells [11]; MCF7, 4g at IC50 (0.56 μM), versus control (DMSO)): 1.29 fold
- cell cycle arrest phase (MCF7 cells [11]; MCF7 cells): arrest in the S stage of the cell cycle; also recorded: arrest in the proliferation of MCF7 cells in the S phase; also recorded: ceased the proliferation of MCF-7 cancer cells in the S phase
- Apoptosis Early (MCF7 cells [12]): 25.16%
- Apoptosis Late (MCF7 cells [12]): 18.13%
- Necrosis (MCF7 cells [12]): 5.27%
- increase in the percentage of total apoptosis (MCF7 cells [12]; compared to the control): 29.61 fold
